Numbering of substitutions follows the chain as printed.
Experiments:
[1] = target: T1, 15N-labelled DENR26–98–MCTS1 complex (Homo sapiens, UniProt O43583); assay: 1H NMR and 1H-15N HSQC; assay type: binding; details: covalent; fivefold excess, pH 7.5, 298 K
T1 construct: gene DENR; DENR residues 26-98, 15N-labelled, in complex with MCTS1
T1 sequence (O43583 26-98): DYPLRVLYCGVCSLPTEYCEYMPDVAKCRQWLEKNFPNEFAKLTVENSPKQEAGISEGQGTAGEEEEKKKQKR
T1 sequence (Q9ULC4 1-181 partner): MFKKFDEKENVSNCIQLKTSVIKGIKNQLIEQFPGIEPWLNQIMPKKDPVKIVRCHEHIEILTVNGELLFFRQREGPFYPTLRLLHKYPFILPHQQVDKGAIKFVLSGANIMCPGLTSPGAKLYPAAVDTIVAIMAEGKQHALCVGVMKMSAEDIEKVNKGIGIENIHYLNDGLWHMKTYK

[2] = target: T2, His-DENR–MCTS1 complex (recombinant WT DENR; DENR* = C13A/C132A/C154A) (Homo sapiens, UniProt O43583, C13A/C132A/C154A); assay: differential alkylation LC-MS; intact protein MS; Zn release (PAR); assay type: binding; details: covalent; 25 µM rabeprazole, fivefold excess, 15 min, r.t., pH 7.5; site C44
T2 construct: His-tagged DENR co-expressed with MCTS1 in Escherichia coli; heterodimeric complex; C4 zinc site C34/C37/C44/C53
T2 sequence (O43583 2-198 C13A/C132A/C154A): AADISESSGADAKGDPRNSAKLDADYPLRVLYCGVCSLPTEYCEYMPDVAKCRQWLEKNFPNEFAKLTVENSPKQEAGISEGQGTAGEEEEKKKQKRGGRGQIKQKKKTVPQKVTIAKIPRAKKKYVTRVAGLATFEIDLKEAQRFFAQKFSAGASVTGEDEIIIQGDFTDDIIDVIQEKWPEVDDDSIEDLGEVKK
T2 sequence (Q9ULC4 1-181 partner): T1 sequence (Q9ULC4 1-181 partner)

[3] = target: T3, His-DENR–MCTS1 complex (recombinant WT DENR; DENR* = C13A/C132A/C154A) (Homo sapiens, UniProt O43583); assay: LC-MS/MS adduct mapping; assay type: binding; details: covalent; fivefold excess, iodoacetamide, 15 min, r.t., pH 7.5; sites C44 and C34
T3 construct: His-tagged DENR co-expressed with MCTS1 in Escherichia coli; heterodimeric complex; C4 zinc site C34/C37/C44/C53
T3 sequence (O43583 2-198): T2 sequence (O43583 2-198 C13A/C132A/C154A) with A12C, A131C, A153C
T3 sequence (Q9ULC4 1-181 partner): T1 sequence (Q9ULC4 1-181 partner)

[4] = target: T4, SBP-DENR (SBP-DENR* = C13A/C132A/C154A) (Homo sapiens, UniProt O43583); assay: affinity purification and click Cy5 in-gel labelling; assay type: cell-based; details: covalent; intact HEK293 MSR cells, 10 µM, 15 min, 37 °C
T4 sequence (O43583 1-198): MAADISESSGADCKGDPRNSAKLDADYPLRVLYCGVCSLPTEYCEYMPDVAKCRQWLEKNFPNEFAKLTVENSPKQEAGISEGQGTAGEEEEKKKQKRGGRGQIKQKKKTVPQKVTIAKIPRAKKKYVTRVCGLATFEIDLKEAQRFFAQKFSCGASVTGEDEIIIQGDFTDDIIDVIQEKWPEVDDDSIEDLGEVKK

[5] = target: T3, His-DENR–MCTS1 complex (recombinant WT DENR; DENR* = C13A/C132A/C154A); assay: in-gel Cy5 labelling after click chemistry; assay type: binding; details: covalent; with NEM; zinc-dependent

Structure (SMILES)	1H NMR and 1H-15N HSQC [1]	occupancy [2]	LC-MS/MS adduct mapping [3]	affinity purification and click Cy5 in-gel labelling [4]	in-gel Cy5 labelling after click chemistry [5]
COCCCOc1ccnc(C[S+]([O-])c2nc3ccccc3[nH]2)c1C (centres unmarked) [rabeprazole]	DENR exhibited time-dependent chemical shift perturbations of the amide peaks during incubation with rabeprazole	~ 80%	we identified the hydrolysed form of rabeprazole on cysteines C44	–	–
Cc1c(OCCCN=[N+]=[N-])ccnc1C[S+]([O-])c1nc2ccccc2[nH]1 (centres unmarked) [Rabazi]	–	–	–	led to the formation of an SBP-DENR–Rabazi disulfide conjugate	Rabazi conjugation to recombinant DENR leads to a rather weak and diffuse band

Reference: article PMC11964933, “Site-specific activation of the proton pump inhibitor rabeprazole by tetrathiolate zinc centres” (Nature Chemistry, 2025)
